According to paper PMC6270836, “Carapanolides J–L from the Seeds of Carapa guianensis (Andiroba) and Their Effects on LPS-Activated NO Production” (Molecules, 2014):
Several values for one entry are separate records, joined by “and”; a condition that tells them apart may be missing. Equal values may be shown once. Entries after “also recorded” stand apart in the source; their conditions may differ. Read-outs that look alike come from different tables or passages of the source.

What was measured:
[1] = test system: NO production in LPS-stimulated RAW264.7 cells; assay: Inhibitory assay of NO production in LPS-stimulated RAW264.7 cells; format: cell-based, mouse; conditions: for Produced NO (%): LPS 5 μg/mL, DMSO control = 100%, mean ± S.E., n=3; for IC50: Mus musculus, read-out: IC50 (μM), produced NO
Method: (§1) Physiological nitric oxide (NO) is involved in blood pressure regulation and blood flow distribution, whereas its overexpression may induce tissue injury, multiple organ dysfunction, and death, as well as systemic inflammatory responses in sepsis, such as hypotension, cardiodepression, and vascular hyporeactivity. In the present study, four limonoids and L-NMMA, an inducible nitric oxide synthase (iNOS) inhibitor, were evaluated for their inhibitory effects on NO production in LPS-stimulated RAW264.7 cells (Table 3). To determine safe concentrations, the cytotoxicities of these limonoids against RAW 264.7 were assessed by the MTT assay.
An inhibitory assay of nitric oxide production was performed according to a method reported previously with slight modifications. Briefly, RAW264.7 cells (5 × 10^4 cells in 100 μL) were seeded onto 96-well microplates, and incubated for 24h. D-MEM (100 μL) containing test samples (final concentration of 100, 30, 10, or 3 μM) dissolved in DMSO (final concentration 0.2%) and LPS (final concentration of 5 μg/mL) were added. […] After being incubated for 30 min, the absorbance of each well was read at 570 nm using a microplate reader. The optical density of vehicle control cells was assumed to be 100%.

[2] = RAW264.7 cell proliferation / cytotoxicity by MTT assay; conditions: mouse
Method: as §1
(§2) RAW264.7 cell proliferation was examined according to a method reported previously with some modifications. Briefly, RAW264.7 cells (5 × 10^4 cells in 100 μL) were seeded onto 96-well microplates, and incubated for 24 h. D-MEM (100 μL) containing test samples (final concentration of 100, 30, 10, or 3 μM) dissolved in DMSO (final concentration 0.2%) was added. […] After 3 h of incubation, 20% sodium dodecyl sulfate (SDS) in 0.1 M HCl was added to dissolve the formazan produced by the cells. The absorbance of each well was read at 570 nm using a microplate reader. The optical density of vehicle control cells was assumed to be 100%.

RAW264.7 cells = assay: as above; conditions: 3–100 μM, MTT assay
Method: as §1, §2

[3] = LPS-stimulated RAW264.7 cells, 24 h

SMILES	Produced NO (%) ([1]; 3 μM, 24 h)	Produced NO (%) ([1]; 10 μM, 24 h)	Produced NO (%) ([1]; 30 μM, 24 h)	Produced NO (%) ([1]; 100 μM, 24 h)	IC50 [1, 3] [µM]	IC50 at 24 h ([2]; RAW264.7 cells) [µM]	viability at 24 h, 3 µM ([2]; RAW264.7 cells) [%]	viability at 24 h, 10 µM ([2]; RAW264.7 cells) [%]	viability at 24 h, 30 µM ([2]; RAW264.7 cells) [%]	viability at 24 h, 100 µM ([2]; RAW264.7 cells) [%]	IC50 ([1]; RAW264.7, 24 h) [µM]	Cytotoxicity against RAW 264.7 (in words) (RAW264.7 cells)	IC50 at 24 h [2] [µM]	viability at 24 h, 3 µM [2] [%]	viability at 24 h, 10 µM [2] [%]	viability at 24 h, 30 µM [2] [%]	viability at 24 h, 100 µM [2] [%]
[H]/N=C(/NC)NCCC[C@H](N)C(=O)O [L-NMMA, reference compound]	93.0 ± 3.3%	79.3% and 79.3 ± 0.8%	58.2% and 58.2 ± 2.4%	39.9% and 39.9 ± 1.7%	53.7	> 100	103.5 ± 0.5	102 ± 1.5	94.1 ± 1.4	96.5 ± 2.5	–	–	–	–	–	–	–
CCC(=O)OC1C2(O)C(OC(C)=O)C3(C)CC24OC2(C)OC15C1CC(=O)OC(c6ccoc6)C1(C)CCC5(O2)C41COC(=O)CC31 (centres unmarked) [Compound 3, carapanolide L]	95.6 ± 2.5%	95.4 ± 1.2%	95.4 ± 2.9%	78.4 ± 2.3%	–	> 100	97.6 ± 0.6	97.3 ± 1.3	100.5 ± 0.4	94.4 ± 1	> 100	non-toxicities	–	–	–	–	–
CC1(C)C(=O)C=CC2(C)C1CC(=O)C1(C)C2C(O)CC2(C)C(c3ccoc3)OC(=O)C3OC321 (stereo not drawn) [Compound 1, 11α-hydroxy-7-deacetoxy-7-oxogedunin]	92.1 ± 1.5%	83.4% and 83.4 ± 3.1%	61.8% and 61.8 ± 1.8%	16.8% and 16.8 ± 0.0%	37.4	> 100	102.4 ± 0.8	101 ± 1.7	102.8 ± 0.6	103 ± 1.8	–	non-toxicities; also recorded: no cytotoxicity	–	–	–	–	–
C/C=C(\C)C(=O)OC1C2(C)CC3(O)C(C)(C4CCC5(C)C(=C4C(OC(=O)C(C)CC)C13O)C(OC(C)=O)C(=O)OC5c1ccoc1)C2CC(=O)OC (centres unmarked) [Compound 2, carapanolide K]	78.6 ± 1.9%	58.3 ± 2.8%	25.8 ± 7.0%	7.1 ± 1.2%	12	15.2	81.4 ± 0.8	65.6 ± 0.2	33.6 ± 6.3	0.4 ± 0.4	–	–	–	–	–	–	–
CC(=O)O[C@@H]1C[C@H]2C(C)(C)C(=O)C=C[C@]2(C)[C@H]2CC[C@@]3(C)[C@H](c4ccoc4)C(=O)[C@H]4O[C@]43[C@@]21C [Compound 4, epoxyazadiradione]	74.0% and 74.0 ± 5.0%	30.0% and 30.0 ± 2.3%	7.5 ± 1.0%	3.9 ± 1.8%	5.9	–	–	–	–	–	–	moderate cytotoxicities	21.3	93.6 ± 1.4	99.7 ± 0.8	6.8 ± 0.3	3.3 ± 0.3
